# According to ChEMBL document CHEMBL4229428, “Design, synthesis, X-ray studies, and biological evaluation of novel BACE1 inhibitors with bicyclic isoxazoline carboxamides as the P3 ligand” (Bioorg Med Chem Lett, 2018):
# pEC50, pKi: −log10 of the molar value.
# Tests used:
# Beta-secretase 1 [1] = molecular target: T1, Beta-secretase 1 (Homo sapiens, UniProt P56817); assay: Inhibition of recombinant BACE1 (unknown origin) using fluorogenic substrate
# Beta-secretase 1 [2] = molecular target: T1, Beta-secretase 1; assay: Inhibition of BACE1 (unknown origin) by cell-based assay
# T1 sequence (P56817 whole entry): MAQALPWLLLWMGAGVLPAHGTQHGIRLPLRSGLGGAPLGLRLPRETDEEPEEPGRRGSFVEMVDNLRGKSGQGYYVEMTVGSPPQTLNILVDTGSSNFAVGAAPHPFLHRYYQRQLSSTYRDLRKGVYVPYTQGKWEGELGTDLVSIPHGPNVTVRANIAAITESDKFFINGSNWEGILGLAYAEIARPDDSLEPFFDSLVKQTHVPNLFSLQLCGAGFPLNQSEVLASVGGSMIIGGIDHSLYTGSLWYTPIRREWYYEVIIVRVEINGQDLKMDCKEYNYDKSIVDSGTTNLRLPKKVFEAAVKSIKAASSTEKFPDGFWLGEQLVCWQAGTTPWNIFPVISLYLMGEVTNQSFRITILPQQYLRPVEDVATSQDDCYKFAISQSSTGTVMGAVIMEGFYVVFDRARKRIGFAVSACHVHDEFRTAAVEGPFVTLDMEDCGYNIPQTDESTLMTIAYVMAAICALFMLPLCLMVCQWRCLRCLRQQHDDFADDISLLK
SMILES,pKi (Beta-secretase 1 [1]),pEC50 (Beta-secretase 1 [2])
CSC[C@H](NC(=O)C1=NO[C@H]2OCC[C@@H]12)C(=O)N[C@@H](CC(C)C)[C@@H](O)C[C@@H](C)C(=O)N[C@H](C(=O)NCC(C)C)C(C)C,6.26,–
COc1cccc(CNC[C@@H](O)[C@H](Cc2ccccc2)NC(=O)[C@H](CS(C)(=O)=O)NC(=O)C2=NO[C@H]3OCC[C@@H]23)c1,4.54,–
CC(C)CNC(=O)[C@@H](NC(=O)[C@H](C)C[C@H](O)[C@H](CC(C)C)NC(=O)[C@H](CNC(=O)OC(C)(C)C)NC(=O)C1=NO[C@H]2OCC[C@@H]12)C(C)C,5.38,–
CC(C)CNC(=O)[C@@H](NC(=O)[C@H](C)C[C@H](O)[C@H](CC(C)C)NC(=O)[C@H](CS(C)(=O)=O)NC(=O)C1=NO[C@H]2OCC[C@@H]12)C(C)C,6.55,–
CC(C)CNC(=O)[C@@H](NC(=O)[C@H](C)C[C@H](O)[C@H](CC(C)C)NC(=O)[C@H](CS(C)(=O)=O)NC(=O)C1=NO[C@@H]2OCC[C@H]12)C(C)C,6.96,–
COc1cccc(CNC[C@@H](O)[C@H](Cc2ccccc2)NC(=O)[C@H](CS(C)(=O)=O)NC(=O)C2=NO[C@@H]3OCC[C@H]23)c1,4.39,–
CC(C)CNC(=O)[C@@H](NC(=O)[C@H](C)C[C@H](O)[C@H](CC(C)C)NC(=O)[C@H](CS(C)(=O)=O)NC(=O)C1=NO[C@@H]2OCCC[C@H]12)C(C)C,7.55,–
CC(C)CNC(=O)[C@@H](NC(=O)[C@H](C)C[C@H](O)[C@H](CC(C)C)NC(=O)[C@H](CNC(=O)OC(C)(C)C)NC(=O)C1=NO[C@@H]2OCC[C@H]12)C(C)C,6.09,–
CSC[C@H](NC(=O)C1=NO[C@@H]2OCC[C@H]12)C(=O)N[C@@H](CC(C)C)[C@@H](O)C[C@@H](C)C(=O)N[C@H](C(=O)NCC(C)C)C(C)C,7.96,6.46
CC(C)CNC(=O)[C@@H](NC(=O)[C@H](C)C[C@H](O)[C@H](CC(C)C)NC(=O)[C@H](CS(C)(=O)=O)NC(=O)C1=NO[C@H]2OCCC[C@@H]12)C(C)C,6.20,–
